A word on the IC50: it is the concentration that inhibits the measured activity by half.

The values that follow come from patent publication US6906068B1, “Substituted polycyclic aryl and heteroaryl 1,2,4 - triazinones useful as anticoagulants” (Pharmacia Corporation, priority 1999, dated 2005).

Common to all, as to format: biochemical
Experiment [1] addresses T1, TF-VIIa (recombinant soluble tissue factor and recombinant human factor VIIa) (Homo sapiens, UniProt P08709).
T1 construct: conversion of coagulation factor VII to VIIa by Xa; purchased American Diagnostica, Greenwich Conn; host or cells: factor VIIa purchased; soluble TF made in house in E. coli
In words: TF-VIIa Assay. As to the method: In this assy 100 nM recombinant soluble tissue factor and 2 nM recombinant human factor VIIa are added to a 96-well assay plate containing 0.4 mM of the substrate, N-Methylsulfonyl-D-phe-gly-arg-p-nitroaniline and either inhibitor or buffer (5 mM CaCl2, 50 mM Tris-HCl, pH 8.0, 100 mM NaCl, 0.1% BSA). The reaction, in a final volume of 100 ul is measured immediately at 405 nm to determine background absorbance. The plate is incubated at room temperature for 60 min, at which time the rate of hydrolysis of the substrate is measured by monitoring the reaction at 405 nm for the release of p-nitroaniline. Percent inhibition of TF-VIIa activity is calculated from OD405 nm value from the experimental and control sample.
(§1) Recombinant soluble TF, consisting of amino acids 1-219 of the mature protein sequence was expressed in E. coli and purified using a Mono Q Sepharose FPLC. Recombinant human VIIa was purchased from American Diagnostica, Greenwich Conn. and chromogenic substrate N-Methylsulfonyl-D-phe-gly-arg-p-nitroaniline was prepared by American Peptide Company, Inc., Sunnyvale, Calif. Factor Xa was obtained from Enzyme Research Laboratories, South Bend Ind., thrombin from Calbiochem, La Jolla, Calif., and trypsin and L-BAPNA from Sigma, St. Louis Mo. The chromogenic substrates S-2765 and S-2238 were purchased from Chromog nix, Sweden.

Experiment [2] deals with T2, trypsin, type IX from porcine pancreas (Sus scrofa, UniProt P00761).
T2 construct: purchased Sigma, St. Louis Mo. type IX; host or cells: porcine pancreas
T2 sequence (P00761 9-231): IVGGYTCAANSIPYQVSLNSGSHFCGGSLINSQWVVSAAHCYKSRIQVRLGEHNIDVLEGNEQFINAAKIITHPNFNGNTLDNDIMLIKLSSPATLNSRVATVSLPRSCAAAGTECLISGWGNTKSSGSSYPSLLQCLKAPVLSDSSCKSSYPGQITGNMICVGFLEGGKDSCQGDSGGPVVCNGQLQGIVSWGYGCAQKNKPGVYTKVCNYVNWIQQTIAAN
In words: Trypsin Assay. The following applies: read-out: Trpysin II IC50. As to the method:
5 ug/ml trypsin, type IX from porcine pancreas and 0.375 mM N-α-Benzoyl-L-arginine-p-nitroanilide (L-BAPNA) are added to a 96-well assay plate containing either inhibitor or buffer (50 mM Tris-HCl, pH 8.0, 100 mM NaCl, 0.1% BSA). The reactions, in a final volume of 100 ul are measured immediately at 405 nm to determine background absorbance. The plate is incubated at room temperature for 60 min, at which time the rate of hydrolysis of the substrate is measured by monitoring the reaction at 405 nm for the release of p-nitroaniline. Percent inhibition of trypsin activity is calculated from OD405 nm value from the experimental and control sample.
as §1

The next experiment addresses human thrombin (Homo sapiens, UniProt P00734). The experiment in a line: Thrombin Assay. The following applies: @ 30 uM.
Another experiment addresses T3, human factor Xa (Homo sapiens, UniProt P00742).
T3 construct: purchased Enzyme Research Laboratories, South Bend Ind
The experiment in a line: Xa Assay. As to conditions: @ 30 uM. As to the method: 0.3 nM human factor Xa and 0.15 mM N-α-Benzyloxycarbonyl-D-arginyl-L-glycyl-L-arginine-p-nitroaniline-dihydrochloride (S-2765) are added to a 96-well assay plate containing either inhibitor or buffer (50 mM Tris-HCl, pH 8.0, 100 mM NaCl, 0.1% BSA). The reaction, in a final volume of 100 ul is measured immediately at 405 nm to determine background absorbance. The plate is incubated at room temperature for 60 min, at which time the rate of hydrolysis of the substrate is measured by monitoring the ieaction at 405 nm for the release of p-nitroaniline. Percent inhibition of Xa activity is calculated from OD405 nm value from the experimental and control sample.
as §1

Structures are written as SMILES. Bounds are passed on as bounds.

T3 sequence (P00742 235-488 limits assumed): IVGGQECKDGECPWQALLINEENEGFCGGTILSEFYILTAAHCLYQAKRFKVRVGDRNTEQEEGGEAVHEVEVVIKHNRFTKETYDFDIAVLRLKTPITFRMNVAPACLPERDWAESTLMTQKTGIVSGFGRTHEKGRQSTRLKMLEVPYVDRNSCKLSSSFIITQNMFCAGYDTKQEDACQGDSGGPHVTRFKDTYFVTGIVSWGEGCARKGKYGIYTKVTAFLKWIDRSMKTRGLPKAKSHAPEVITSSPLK
T3 sequence (P00742 41-179 partner limits assumed): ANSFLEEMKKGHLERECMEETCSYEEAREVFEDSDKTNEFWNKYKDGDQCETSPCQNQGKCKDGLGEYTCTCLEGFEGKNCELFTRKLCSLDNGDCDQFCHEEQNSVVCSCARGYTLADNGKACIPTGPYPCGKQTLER
T1 sequence (P08709 213-466 limits assumed): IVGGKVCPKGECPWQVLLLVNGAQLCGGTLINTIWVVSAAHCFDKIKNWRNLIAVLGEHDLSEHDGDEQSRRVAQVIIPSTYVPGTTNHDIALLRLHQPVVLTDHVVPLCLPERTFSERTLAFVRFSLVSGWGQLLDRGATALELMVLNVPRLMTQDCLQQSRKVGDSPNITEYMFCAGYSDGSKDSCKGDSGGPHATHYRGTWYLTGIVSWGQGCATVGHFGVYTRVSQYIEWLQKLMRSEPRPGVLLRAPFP
T1 sequence (P08709 61-212 partner limits assumed): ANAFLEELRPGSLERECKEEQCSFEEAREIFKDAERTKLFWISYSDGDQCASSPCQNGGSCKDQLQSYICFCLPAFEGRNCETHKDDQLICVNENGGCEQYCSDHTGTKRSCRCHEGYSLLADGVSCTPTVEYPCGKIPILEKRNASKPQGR
T1 sequence (P13726 33-251 partner limits assumed): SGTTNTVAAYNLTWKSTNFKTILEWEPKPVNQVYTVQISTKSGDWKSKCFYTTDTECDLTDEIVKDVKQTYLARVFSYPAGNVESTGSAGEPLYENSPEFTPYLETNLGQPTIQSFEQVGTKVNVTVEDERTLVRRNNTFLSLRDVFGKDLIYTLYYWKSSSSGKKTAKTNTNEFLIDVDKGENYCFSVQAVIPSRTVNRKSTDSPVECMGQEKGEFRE
Protocol for human thrombin: 0.28 nM human thrombin and 0.06 mM H-D-Phenylalanyl-L-pipecolyl-L-arginine-p-nitroaniline dibydrochloride are added to a 96-well assay plate containing either inhibitor or buffer (50 mM Tris-HCl, pH 8.0, 100 mM NaCl, 0.1% BSA). The reaction, in a final volume of 100 ul is measured immediately at 405 nm to determine background absorbance. The plate is incubated at room temperature for 60 min, at which time the rate of hydrolysis of the substrate is measured by monitoring the reaction at 405 nm for the release of p-nitroaniline. Percent inhibition of thrombin activity is calculated from OD405 nm value from the experimental and control sample.

As for `N=C(N)c1cccc(CNC(=O)Cn2c(-c3ccccc3)ncc(NS(=O)(=O)Cc3ccccc3)c2=O)c1` [Example 2], the IC50 in experiment [1] and in experiment [2] was greater than 30 µM each time. Regarding `CC(C)Nc1cnc(-c2cccc(N)c2)n(CC(=O)NCc2ccc(C(=N)N)cc2)c1=O` [Example 6], the “Thrombin II percent inhibition” value at human thrombin is 43% @ 30 um. Moreover, the “Factor Xa percent inhibition” value on human factor Xa was 33% @ 30 uM.

Consider `CC(C)Nc1cnc(-c2cccnc2)n(CC(=O)NCc2ccc(C(=N)N)cc2)c1=O` [Example 7], for which the “Factor Xa percent inhibition” value at human factor Xa was 33% @ 30 uM. With `N=C(N)c1ccc(CNC(=O)Cn2c(-c3cccc(N)c3)ncc(NC3CCC3)c2=O)cc1` [Example 8], on human thrombin, the “Thrombin II percent inhibition” value was determined as 42% @ 30 uM. The “Factor Xa percent inhibition” value on human factor Xa was 15% @ 30 uM.
